System: serum starved SKBR3 cells
Test: EGF stimulation
Type: cell-based
Conditions: 100 ng/ml EGF with 250 nM THZ1, 6 hours
Protocol: SKBR3 cells were seeded into duplicate 6-well plates and allowed to grow until 80% confluent. The cells were then washed with PBS and the media was replaced with serum-free media overnight. After serum starvation the cells were treated with 100 ng/ml EGF with or without 250 nM THZ1 for 6 hours then lysates were collected for both RNA and protein analysis.

CN(C)C/C=C/C(=O)Nc1ccc(C(=O)Nc2cccc(Nc3ncc(Cl)c(-c4c[nH]c5ccccc45)n3)c2)cc1 [THZ1]
prevented: EGF induction of CITED2 expression (mRNA) | EGF induction of mRNA expression of EGFR, MYC, CDKN1B, PLK2 and FOXC1 | EGF-induced increase of CITED2 protein
